Like-named read-outs stand apart in the source and are kept apart here.
Legend:
[1] = molecular target: T1, HaxyOBP15 (Harmonia axyridis, UniProt A0A8K1AM29); test: Fluorescent probe binding (titration of protein with probe); conditions: probe titrated to 2-16 μM, Tris-HCl 50 mM pH 7.4; read-out: dissociation constant of probe with HaxyOBP15
Experimental: A Cary Eclipse Fluorescence Spectrophotometer (Agilent Technologies, United States) was used to determine the results of the binding assay. N-phenyl-1-naphthylamine (1-NPN) for HaxyOBP15 and 4,4′-Dianilino-1,1′-binaphthyl-5,5′-disulfonic acid dipotassium salt (bis-ANS) for HaxyOBP3, 5, and 12 were chosen as the fluorescent probe. The excitation wavelength was 337 nm of 1-NPN and 295 nm of bis-ANS, and the emission spectrum was recorded between 350 and 500 nm for 1-NPN and between 300 and 550 nm for bis-ANS. The recombinant proteins prepared in Tris–HCl (50 mM, pH 7.4) was titrated with aliquots of 1 mM 1-NPN or bis-ANS to final concentrations ranging from 2 to 16 μM to measure the binding affinity. To further measure the binding affinity of ligands to HaxyOBPs, proteins and fluorescent probe at 2 μM were titrated with aliquots of 1 mM odorants. The binding constant (K1-NPN/bis-ANS) of 1-NPN or bis-ANS to HaxyOBPs was calculated by GraphPad Prism 5 software (GraphPad Software Inc.) with the equation Ki = [IC50]/(1 + [1-NPN]/K1-NPN) or [IC50]/(1 + [bis-ANS]/Kbis-ANS), where [1-NPN]/[bis-ANS] is the free concentration of 1-NPN/bis-ANS, and K1-NPN/Kbis-ANS is the dissociation constant of the protein/1-NPN (bis-ANS).

[2] = molecular target: T1, HaxyOBP15; test: Competitive fluorescence binding assay (1-NPN probe); conditions: for Ki: Ki = [IC50]/(1 + [1-NPN]/K1-NPN)
Experimental: (§1) The positive plasmid was then transformed into BL21 (DE3) cells for the expression of recombinant proteins, and proteins induced with 0.5 mmol/L isopropyl β-D-1-thiogalactopyranoside (IPTG) for 4 h at 37°C (HaxyOBP3) or 16 h at 15°C (HaxyOBP5, 12, and 15). […] Inclusion bodies were denatured by 8 M urea.
(§2) Protein purification was performed with His-Tag Purification Resin column (Genscript Biology Company, Nanjing, Jiangsu, China) and purified by gradient imidazole buffer (20, 50, 100, 250, and 500 mmol·L^−1). The purity and size of proteins were detected by SDS-PAGE, and concentrations of proteins were measured with bicinchoninic acid (BCA) Protein Assay Kit (ThermoFisher Scientific-Life Technologies, Carlsbad, CA, United States).
(§3) A Cary Eclipse Fluorescence Spectrophotometer (Agilent Technologies, United States) was used to determine the results of the binding assay. N-phenyl-1-naphthylamine (1-NPN) for HaxyOBP15 and 4,4′-Dianilino-1,1′-binaphthyl-5,5′-disulfonic acid dipotassium salt (bis-ANS) for HaxyOBP3, 5, and 12 were chosen as the fluorescent probe.

[3] = molecular target: HaxyOBP5 (Harmonia axyridis, UniProt A0A8J9RUK3); test: Competitive fluorescence binding assay (bis-ANS probe); conditions: for Ki: Ki = [IC50]/(1 + [bis-ANS]/Kbis-ANS)
Experimental: as §1, §2, §3

[4] = molecular target: HaxyOBP12 (Harmonia axyridis, UniProt A0A8K1AMY0); test: as above; conditions: recombinant protein and bis-ANS at 2 μM, Tris-HCl 50 mM pH 7.4; for Ki: Ki = [IC50]/(1 + [bis-ANS]/Kbis-ANS)
Experimental: as §1, §2, §3

[5] = molecular target: HaxyOBP3 (Harmonia axyridis, UniProt A0A8K1AM44); test: as above; conditions: recombinant protein and bis-ANS at 2 μM, Tris-HCl 50 mM pH 7.4; for Ki: Ki = [IC50]/(1 + [bis-ANS]/Kbis-ANS)
Experimental: as §1, §2, §3

[6] = recombinant protein and 1-NPN at 2 μM, Tris-HCl 50 mM pH 7.4
[7] = recombinant protein and 1-NPN at 2 μM, Tris-HCl 50 mM pH 7.4, read-out: HaxyOBP15 IC50
[8] = HaxyOBP5 Ki, recombinant protein and bis-ANS at 2 μM, Tris-HCl 50 mM pH 7.4

Chain of HaxyOBP3 (A0A8K1AM44 entry or part of it): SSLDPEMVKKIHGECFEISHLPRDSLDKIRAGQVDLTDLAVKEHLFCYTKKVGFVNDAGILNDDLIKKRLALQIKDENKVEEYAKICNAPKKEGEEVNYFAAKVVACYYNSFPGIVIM
Chain of HaxyOBP5 (A0A8J9RUK3 entry or part of it): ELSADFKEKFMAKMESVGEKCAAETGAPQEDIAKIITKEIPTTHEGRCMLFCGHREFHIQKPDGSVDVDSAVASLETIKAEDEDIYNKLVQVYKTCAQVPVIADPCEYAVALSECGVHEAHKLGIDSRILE
Chain of HaxyOBP12 (A0A8K1AMY0 entry or part of it): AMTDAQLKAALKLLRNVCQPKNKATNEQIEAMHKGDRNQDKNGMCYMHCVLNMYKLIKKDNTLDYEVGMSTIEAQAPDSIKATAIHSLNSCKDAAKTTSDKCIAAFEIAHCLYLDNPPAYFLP
T1 sequence (A0A8K1AM29 entry or part of it): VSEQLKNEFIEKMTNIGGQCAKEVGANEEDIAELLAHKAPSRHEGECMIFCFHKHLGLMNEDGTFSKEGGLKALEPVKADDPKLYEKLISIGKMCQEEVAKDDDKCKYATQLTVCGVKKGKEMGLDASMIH

IC50 [2]	SMILES	Ki [2, 6]	IC50 [2, 7]	Ki [3, 8]	also measured
	c1ccc(Nc2cccc3ccccc23)cc1 [1-NPN, N-phenyl-1-naphthylamine]				Kd [1]: 5.07 ± 0.31 µM
	C=CC(=C)CC/C=C(\C)CCC=C(C)C [(E)-β-Farnesene]	4.33 ± 0.4 µM	5.81 ± 0.46 µM		
	CC(=O)CCC1=C(C)CCCC1(C)C [Dihydro-β-ionone]	24 ± 2.65 µM	30.9 ± 3.01 µM		
	CC(=O)OC/C=C(\C)CCC=C(C)C [Geranyl acetate]	23.4 ± 3.04 µM	30.3 ± 3.58 µM		
	COC(=O)c1ccccc1O [Methyl salicylate]			11.7 µM	Ki ([3]; recombinant protein and bis-ANS at 2 μM, Tris-HCl 50 mM pH 7.4, read-out: HaxyOBP5 Ki): 18.1 ± 1.33 µM; IC50 ([3]; recombinant protein and bis-ANS at 2 μM, Tris-HCl 50 mM pH 7.4, read-out: HaxyOBP5 IC50): 26.4 ± 1.96 µM
	CCCCCCCCC=O [Nonyl aldehyde]	29.6 ± 1.86 µM	38.5 ± 2.03 µM		
	COc1ccc(C=O)cc1 [p-Anisaldehyde]			13.4 ± 0.67 µM	IC50 [4]: 25.5 ± 1.99 µM; Ki [4]: 16.1 ± 1.21 µM; IC50 [5]: 34.1 ± 1.06 µM; Ki [5]: 24.4 ± 0.37 µM; IC50 [3]: 19.9 ± 0.7 µM
12 ± 0.56 µM	CC(=O)/C=C/C1C(C)=CCCC1(C)C (stereo not drawn) [α-Ionone]				
6.99 ± 0.21 µM	CC(=O)/C=C/C1=C(C)CCCC1(C)C [β-Ionone]			11.7 ± 0.86 µM	IC50 [4]: 24 ± 1.56 µM; Ki [4]: 15.2 ± 1.06 µM; IC50 [5]: 25.9 ± 2.85 µM; Ki [5]: 18.8 ± 2.14 µM; IC50 [3]: 17.8 ± 1.52 µM

SMILES	IC50 [2]	Ki [2, 6]	IC50 [2, 7]	Ki [3, 8]	also measured
C=CC(C)(CCC=C(C)C)OC(C)=O (stereo not drawn) [Linalyl acetate]	40 ± 2.91 µM				
